# Test results: ChEMBL document CHEMBL1130182, “C-terminal modifications of histidyl-N-benzylglycinamides to give improved inhibition of Ras farnesyltransferase, cellular activity, and anticancer activity in mice” (J Med Chem, 1997)
# Square brackets hold non-standard residues; d marks the D form. Peptide text beside a SMILES is read from it. * marks the point of attachment. Cbz = O=C(OCc1ccccc1)*; Bn = c1ccc(C*)cc1
# Columns and labels:
# [1] = biological target: Protein farnesyltransferase (Rattus norvegicus, UniProt Q02293+Q04631); test: In vitro inhibition of rat farnesyltransferase.; format: protein-complex assay
# Mus musculus = species: Mus musculus; test: Minimum effective dose required to detect unfarnesylated Ras in H-Ras-transformed NIH3T3 (H-Ras-F) cells injected into mice.; format: functional
Compound,IC50 [1] [nM],MED (Mus musculus) [µM]
CC(CNC(=O)CN(Cc1ccc(OCc2ccccc2)cc1)C(=O)[C@H](Cc1c[nH]cn1)NC(=O)OCc1ccccc1)c1ccccc1 (some centres not stated),8,0.05
O=C(CN(Cc1ccc(OCc2ccccc2)cc1)C(=O)[C@H](Cc1c[nH]cn1)NC(=O)OCc1ccccc1)NCC1(c2ccccc2)CCC1,6,0.02
O=C(CN(Cc1ccc(OCc2ccccc2)cc1)C(=O)[C@H](Cc1c[nH]cn1)NC(=O)OCc1ccccc1)NCCOCc1ccccc1,320,1
CCCC(CNC(=O)CN(Cc1ccc(OCc2ccccc2)cc1)C(=O)[C@H](Cc1c[nH]cn1)NC(=O)OCc1ccccc1)c1ccccc1 (some centres not stated),25,0.2
O=C(CN(Cc1ccc(OCc2ccccc2)cc1)C(=O)[C@H](Cc1c[nH]cn1)NC(=O)OCc1ccccc1)NCCc1ccccc1,62,0.1
C[C@@H](CNC(=O)CN(Cc1ccc(OCc2ccccc2)cc1)C(=O)[C@H](Cc1c[nH]cn1)NC(=O)OCc1ccccc1)c1ccccc1,16,0.2
C[C@H](Cc1ccccc1)NC(=O)CN(Cc1ccc(OCc2ccccc2)cc1)C(=O)[C@H](Cc1c[nH]cn1)NC(=O)OCc1ccccc1,3,0.05
C[C@@H](NC(=O)[C@H](Cc1c[nH]c2ccccc12)NC(=O)[C@H](COCc1ccccc1)NC(=O)[C@H](Cc1ccc(OCc2ccccc2)cc1)NC(=O)[C@H](Cc1c[nH]cn1)NC(=O)OCc1ccccc1)C(N)=O (Cbz-HY(Bn)S(Bn)W[dA]-NH2),,>100
O=C(CN(Cc1ccc(OCc2ccccc2)cc1)C(=O)[C@H](Cc1c[nH]cn1)NC(=O)OCc1ccccc1)NCC1(c2ccccc2)CC1,7,0.02
O=C(CN(Cc1ccc(OCc2ccccc2)cc1)C(=O)[C@H](Cc1c[nH]cn1)NC(=O)OCc1ccccc1)NCC1(c2ccccc2)CCCC1,17,0.2
CC(C)(CNC(=O)CN(Cc1ccc(OCc2ccccc2)cc1)C(=O)[C@H](Cc1c[nH]cn1)NC(=O)OCc1ccccc1)c1ccccc1,4,0.05
C[C@H](CNC(=O)CN(Cc1ccc(OCc2ccccc2)cc1)C(=O)[C@H](Cc1c[nH]cn1)NC(=O)OCc1ccccc1)c1ccccc1,5,0.05
C[C@@H](Cc1ccccc1)NC(=O)CN(Cc1ccc(OCc2ccccc2)cc1)C(=O)[C@H](Cc1c[nH]cn1)NC(=O)OCc1ccccc1,41,0.2
CCC(CNC(=O)CN(Cc1ccc(OCc2ccccc2)cc1)C(=O)[C@H](Cc1c[nH]cn1)NC(=O)OCc1ccccc1)c1ccccc1 (some centres not stated),5,0.05
CC(C)(Cc1ccccc1)NC(=O)CN(Cc1ccc(OCc2ccccc2)cc1)C(=O)[C@H](Cc1c[nH]cn1)NC(=O)OCc1ccccc1,270,1
N#CC(CNC(=O)CN(Cc1ccc(OCc2ccccc2)cc1)C(=O)[C@H](Cc1c[nH]cn1)NC(=O)OCc1ccccc1)c1ccccc1 (some centres not stated),2,0.05
CCC(CC)(CNC(=O)CN(Cc1ccc(OCc2ccccc2)cc1)C(=O)[C@H](Cc1c[nH]cn1)NC(=O)OCc1ccccc1)c1ccccc1,,0.2
